Assay results reported in patent publication US8530512B2, “Broad spectrum gram-positive antimicrobials and anthelmintics with efficacy against drug-resistant strains and Mycobacterium species” (priority 2004, dated 2013).
≈ marks a conversion by molar mass, not a printed value. Read-outs that look alike come from different tables or passages of the source.

Assays:
[1] = system: Staphylococcus aureus ATCC 29213; experiment: microbe, parasite or virus in culture; format: cell-based; conditions: Staphylococcus aureus, ATCC29213; per-compound listing, Example 6; read-out: MIC S. aureus
[2] = system: Staphylococcus aureus MRSA MC-1; experiment: microbe, parasite or virus in culture; format: cell-based; conditions: Staphylococcus aureus, MRSA, read-out: MIC MRSA
[3] = system: Enterococcus faecium VRE 1; experiment: organism not typed; format: cell-based; conditions: for MIC E. faecium VRE 1, G+: Table 3; for MIC: read-out: MIC VRE
Streptococcus pyogenes = experiment: microbe, parasite or virus in culture; format: cell-based; conditions: for MIC: Streptococcus pyogenes, per-compound listing, Example 6, read-out: MIC S. pyogenes; for MIC S. pyogenes, G+: Table 3
Bacillus cereus = experiment: microbe, parasite or virus in culture; format: cell-based; conditions: for MIC: Bacillus cereus, per-compound listing, Example 6, read-out: MIC B. cereus; for MIC B. cereus, G+ (anthrax surrogate): Table 3
M. smegmatis = experiment: MIC assay; format: cell-based; conditions: Mycolicibacterium smegmatis, read-out: MIC M. smegmatis
C. elegans = experiment: motility assay; format: in vivo; set-up: key to Movement score, 1/1600 / Movement score, 1/800 / Movement score, 1/400 / Movement score, 1/200 / Movement score, 1/100: normal (−); slow (+); very slow (++); not motile/paralyzed (+++); conditions: for Movement score, 1/100: dilution 1/100 of stock (10.24 μg/μL; SK-03-92 1.024 μg/μL); for Movement score, 1/100 / Movement score, 1/200 / Movement score, 1/400 / Movement score, 1/800 / Movement score, 1/1600: Ive 1 ng/μL in all wells; for Movement score, 1/200: dilution 1/200 of stock (10.24 μg/μL; SK-03-92 1.024 μg/μL); for Movement score, 1/400: dilution 1/400 of stock (10.24 μg/μL; SK-03-92 1.024 μg/μL); for Movement score, 1/800: dilution 1/800 of stock (10.24 μg/μL; SK-03-92 1.024 μg/μL); for Movement score, 1/1600: dilution 1/1600 of stock (10.24 μg/μL; SK-03-92 1.024 μg/μL), overnight 20° C.; for effect on worms at the lowest concentrations tested: at least triplicate
C. elegans L1 larvae = experiment: developmental assay; format: in vivo; set-up: key to Developmental score, 1/1600 / Developmental score, 1/800 / Developmental score, 1/400 / Developmental score, 1/200 / Developmental score, 1/100: dead (+++); distressed (++); slightly delayed (+); the same as M9-only untreated wells (−); conditions: for Developmental score, 1/100: dilution 1/100; for Developmental score, 1/100 / Developmental score, 1/200 / Developmental score, 1/400 / Developmental score, 1/800 / Developmental score, 1/1600: after four days, Ive 1 ng/μL in each well; for Developmental score, 1/200: dilution 1/200; for Developmental score, 1/400: dilution 1/400; for Developmental score, 1/800: dilution 1/800; for Developmental score, 1/1600: dilution 1/1600
[4] = per-compound listing, Example 6

Row | Molecule | MIC [1] [µg/mL] | MIC [2] [µg/mL] | MIC (Bacillus cereus) [µg/mL] | MIC (M. smegmatis; [4]) [µg/mL] | Movement score, 1/100 (C. elegans) | Movement score, 1/200 (C. elegans) | Movement score, 1/400 (C. elegans) | Movement score, 1/800 (C. elegans) | Movement score, 1/1600 (C. elegans) | Developmental score, 1/100 (C. elegans L1 larvae) | Developmental score, 1/200 (C. elegans L1 larvae) | Developmental score, 1/400 (C. elegans L1 larvae) | Developmental score, 1/800 (C. elegans L1 larvae) | Developmental score, 1/1600 (C. elegans L1 larvae) | other results
1 | COc1cc(O)cc(/C=C/Oc2ccccc2)c1 [CL-1, Phenyl-E-(3-hydroxy-5-methoxy)-styryl ether] | 32 (≈ 132 µM) | 64 (≈ 264 µM) | 32 (≈ 132 µM) | 128 (≈ 528 µM) | +++ | +++ | − | − | − |  |  |  |  |  | MIC E. faecium VRE 1, G+ [3]: 64 µg/mL (≈ 264 µM); MIC [3]: 64 µg/mL (≈ 264 µM); MIC (Streptococcus pyogenes): 32 µg/mL (≈ 132 µM); MIC S. pyogenes, G+ (Streptococcus pyogenes): 32 µg/mL (≈ 132 µM); MIC B. cereus, G+ (anthrax surrogate) (Bacillus cereus): 16 µg/mL (≈ 66 µM)
2 | COc1cc(O)cc(O/C=C/c2ccccc2)c1 [CL-2, Phenyl-E-(3-hydroxy-5methoxy)-styryl ether] | 32 (≈ 132 µM) | 32 (≈ 132 µM) | 64 (≈ 264 µM) | 128 (≈ 528 µM) | +++ | +++ | +++ | − | − |  |  |  |  |  | MIC E. faecium VRE 1, G+ [3]: 32 µg/mL (≈ 132 µM); MIC [3]: 32 µg/mL (≈ 132 µM); MIC (Streptococcus pyogenes): 16 µg/mL (≈ 66 µM); MIC S. pyogenes, G+ (Streptococcus pyogenes): 16 µg/mL (≈ 66 µM); MIC B. cereus, G+ (anthrax surrogate) (Bacillus cereus): 64 µg/mL (≈ 264 µM)
3 | COc1cc(O)cc(/C=C/Oc2ccccc2C)c1 [Compound A11, 2-Methylphenyl-E-(3-hydroxy-5-methoxy)-styryl ether] | 16 (≈ 62.4 µM) | 32 (≈ 125 µM) | 32 (≈ 125 µM) | > 128 |  |  |  |  |  |  |  |  |  |  | MIC E. faecium VRE 1, G+ [3]: 32 µg/mL (≈ 125 µM); MIC [3]: 32 µg/mL (≈ 125 µM); MIC (Streptococcus pyogenes): 32 µg/mL (≈ 125 µM); MIC S. pyogenes, G+ (Streptococcus pyogenes): 32 µg/mL (≈ 125 µM); MIC B. cereus, G+ (anthrax surrogate) (Bacillus cereus): 64 µg/mL (≈ 250 µM)
4 | COc1cc(O)cc(/C=C/c2ccc3ccccc3c2)c1 [SK-03-28F2] | 8 (≈ 29 µM) |  | 16 (≈ 57.9 µM) | 256 (≈ 926 µM) | +++ | +++ | ++ | ++ | − | +++ | +++ | − | − | − | effect on worms at the lowest concentrations tested (C. elegans): reduced motility, paralysis, or death
5 | Oc1cc(O)cc(/C=C/c2ccc3ccccc3c2)c1 [SK-03-28F3] | 8 (≈ 30.5 µM) | 256 (≈ 976 µM) | 8 (≈ 30.5 µM) | > 512 |  |  |  |  |  |  |  |  |  |  | 
6 | Oc1cc(O)cc(/C=C/c2csc3ccccc23)c1 [SK-03-44F2] | 32 (≈ 119 µM) | > 512 | 256 (≈ 954 µM) |  |  |  |  |  |  |  |  |  |  |  | MIC (M. smegmatis): > 512 µg/mL
7 | COc1cc(O)cc(/C=C/SC2CCCCC2)c1 [SK-04-50] |  |  |  |  | ++ | + | + | + | + | +++ | + | − | − | − | 
8 | CCOC(=O)/C=C\Sc1nc2ccccc2s1 [SK-04-59F1] |  |  |  |  | − | − | − | − | − |  |  |  |  |  | 
9 | COc1cc(O)cc(/C=C/Sc2ccccc2C(C)C)c1 [SK-05-01] | 16 (≈ 53.3 µM) |  | 16 (≈ 53.3 µM) | 256 (≈ 852 µM) | + | − | − | − | − |  |  |  |  |  | 
10 | COc1cc(O)cc(/C=C/Sc2ccc(C(C)(C)C)cc2)c1 [SK-05-04] | 16 (≈ 50.9 µM) |  | 8 (≈ 25.4 µM) | 128 (≈ 407 µM) |  |  |  |  |  |  |  |  |  |  | 
11 | COc1cc(O)cc(/C=C/Sc2cccc3ccccc23)c1 [SK-05-16] | 4 (≈ 13 µM) |  | 4 (≈ 13 µM) | 128 (≈ 415 µM) | ++ | ++ | ++ | + | − | ++ | − | − | − | − | 
12 | COc1cc(O)cc(/C=C/Sc2ccc3ccccc3c2)c1 [SK-05-17] | 4 (≈ 13 µM) |  | 4 (≈ 13 µM) | 128 (≈ 415 µM) | ++ | ++ | ++ | ++ | ++ | +++ | ++ | ++ | − | − | effect on worms at the lowest concentration tested (most active) (C. elegans; lowest concentration tested): severe distress; effect on worms at the lowest concentrations tested (C. elegans): reduced motility, paralysis, or death
13 | CCC(C)CS/C=C/c1cc(O)cc(OC)c1 (centres unmarked) [SK-05-22] | 16 (≈ 63.4 µM) |  | 16 (≈ 63.4 µM) | 128 (≈ 507 µM) | +++ | +++ | ++ | + | − | +++ | +++ | +++ | + | − | effect at the two highest dilutions (C. elegans L1 larvae): death or delays in development
14 | ivermectin [reference compound] |  |  |  |  | +++ | +++ | +++ | +++ | +++ | +++ | +++ | +++ | ++ | ++ | animals affected (C. elegans; 0.25 ng/μL, overnight): Over 40%; animals paralyzed (C. elegans; 0.5 ng/μL): more than 90%; paralysis (C. elegans; 0.5 ng/μl, FIG. 9): Most worms were paralyzed; paralysis (C. elegans; 1 ng/μL): All worms were paralyzed; lowest effective concentration (C. elegans; molar equivalent of 0.25 ng/μL): ~140 nM; lowest effective concentration (C. elegans; overnight, soaking, mixed population): 0.25 ng/µL
